# Measured values: patent US9708259B2 (Hoffmann-La Roche Inc., priority 2013, dated 2017)
# Changes are numbered by the printed parent chain. Like-named read-outs stand apart in the source and are kept apart here.
# Assays:
# human M1 = target: T1, human M1 (Homo sapiens, UniProt P11229); test: M1 PAM assay (FLIPR intracellular calcium), human M1; format: cell-based
# T1 construct: expressed in transfected cells; host or cells: CHO cells
# T1 sequence (P11229 1-460): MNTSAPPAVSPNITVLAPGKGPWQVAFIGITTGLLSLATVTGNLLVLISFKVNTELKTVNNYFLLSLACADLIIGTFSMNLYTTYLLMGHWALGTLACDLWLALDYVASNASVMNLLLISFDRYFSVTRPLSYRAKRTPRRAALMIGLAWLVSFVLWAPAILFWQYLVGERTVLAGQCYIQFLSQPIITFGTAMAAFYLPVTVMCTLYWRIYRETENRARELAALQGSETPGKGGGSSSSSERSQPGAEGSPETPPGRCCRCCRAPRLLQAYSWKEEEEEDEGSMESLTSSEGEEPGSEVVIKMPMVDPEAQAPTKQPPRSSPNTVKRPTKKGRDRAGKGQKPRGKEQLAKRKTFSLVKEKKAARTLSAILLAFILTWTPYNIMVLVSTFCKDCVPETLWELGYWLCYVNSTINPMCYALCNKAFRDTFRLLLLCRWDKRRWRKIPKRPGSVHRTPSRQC
# Protocol: The assay study the effect of several concentrations of test compounds on basal or acetylcholine-stimulated Ca^2+ levels using FLIPR.
# CHO human M1 are plated the day before the experiments at 2×10^5 cells/ml in PDL BioCoat 96 well black/clear plate (Becton 35 4640). The cells are grown at 37° C. and 5% CO2 in the following medium: F12 Nut Mix (Gibco 21765), 10% FCS heat inactivated (GIBCO 16000-044), 1% Pen Strep (Gibco,15140) and 200 μg/ml Geneticin (Gibco 11811). On the day of the experiment, the medium was removed and replaced by […] of dye loading buffer containing Hanks Balanced Salt solution (HBSS, 14065-049, Gibco) with 20 mM HEPES (Gibco 15630-056), 2 mM Probenicid (Sigma P8761), […] ester (Molecular Probes F-14202), 10% Pluronic acid Molecular Probes P-3000) pH=7.4 and incubated at 37° C. After 60 minutes extracellular dye was removed and the cells were washed five times with FLIPR buffer containing HBSS (Gibco 14065-049) with 20 mM HEPES (Gibco, 15630-056), 2 mM Probenicid (Sigma P8761) pre-warmed at 37° C. using and Ebml cell washer leaving […] of FLIPR buffer in each well. The cell plate and the diluted compounds (1% DMSO final concentration) are placed on the platform of the FLIPR and the door closed. A signal test to check background fluorescence and basal fluorescence signal is performed. Laser intensity is adjusted if necessary. Two minutes preincubation with the diluted test compounds is provide to determine any agonist activity on the M1 receptor by comparison to 30 nM Acetylcholine control. In order to determine any modulator activity the diluted compounds were added to cells and after two minutes preincubation, the EC20 of acetylcholine is added followed by another two minutes preincubation before the measurement of intracellular Ca^2+ with a FLIPR (Molecular Devices).
# ratM1 = target: T2, ratM1 (Rattus norvegicus, UniProt P08482); test: M1 PAM assay (FLIPR intracellular calcium), rat M1; format: cell-based
# T2 construct: expressed in transfected cells; host or cells: CHO cells (stated generally for the assay, not specifically for rat M1)
# T2 sequence (P08482 1-460): T1 sequence (P11229 1-460) with A5V, T254S, P309S, R320K, A337G, I413V
# [1] = CHO human M1 cells, FLIPR Ca2+, with EC20 of acetylcholine, first value of the cell, read-out: hM1 EC50
# [2] = rat M1, FLIPR Ca2+, second value of the cell, read-out: ratM1 EC50
SMILES,EC50 (human M1; [1]) [nM],EC50 (ratM1; [2]) [nM],EC50 (human M1) [nM],EC50 (ratM1) [nM]
"Cn1cc(-c2ccc(Cn3cc(C(=O)NC4CCOCC4)c4c(F)cccc43)c(F)c2)cn1 [Example 21, 4-fluoro-1-(2-fluoro-4-(1-methyl-1H-pyrazol-4-yl)benzyl)-N-(tetrahydro-2H-pyran-4-yl)-1H-indole-3-carboxamide]",60.5,175,–,–
"CO[C@H]1COC[C@@H]1NC(=O)c1cn(Cc2ccc(-c3cnn(C)c3)cc2)c2cccc(F)c12 [Example 8, 4-fluoro-N-[(3S,4R)-4-methoxyoxolan-3-yl]-1-[[4-(1-methylpyrazol-4-yl)phenyl]methyl]indole-3-carboxamide]",278,427,–,–
"Cn1cc(-c2ccc(Cn3cc(C(=O)N[C@H]4CCOC[C@@H]4O)c4c(F)c(F)c(F)c(F)c43)cc2)cn1 (single isomer, unassigned) [Example 63, 4,5,6,7-Tetrafluoro-N-((3R,4S) or (3S,4R)-3-hydroxytetrahydro-2H-pyran-4-yl)-1-(4-(1-methyl-1H-pyrazol-4-yl)benzyl)-1H-indole-3-carboxamide]",19.6,54.2,–,–
"Cc1ccc(F)c2c(C(=O)N[C@H]3CCCC[C@@H]3O)cn(Cc3ccc(-c4cnn(C)c4)cc3F)c12 [Example 45, 4-fluoro-1-(2-fluoro-4-(1-methyl-1H-pyrazol-4-yl)benzyl)-N-((1S,2S)-2-hydroxycyclohexyl)-7-methyl-1H-indole-3-carboxamide]",36.1,74.1,–,–
"Cn1cc(-c2ccc(Cn3cc(C(=O)NC4CCOCC4)c4c(F)cccc43)cn2)cn1 [Example 68, 4-fluoro-1-((6-(1-methyl-1H-pyrazol-4-yl)yridine-3-yl)methyl)-N-(tetrahydro-2H-pyran-4-yl)-1H-indole-3-carboxamide]",267,182,–,–
"O=C(N[C@H]1CCCC[C@@H]1O)c1cn(Cc2ccc3nccn3c2)c2cccc(F)c12 [Example 145, 4-fluoro-N-((1S,2S)-2-hydroxycyclohexyl)-1-(imidazo[1,2-a]pyridin-6-ylmethyl)-1H-indole-3-carboxamide]",–,–,17,36
"COc1ccc(F)c2c(C(=O)N[C@H]3CCOC[C@@H]3O)cn(Cc3ccc(-c4cnn(C)c4)cc3F)c12 [Example 153, 4-fluoro-1-(2-fluoro-4-(1-methyl-1H-pyrazol-4-yl)benzyl)-N-((3R,4S)-3-hydroxytetrahydro-2H-pyran-4-yl)-7-methoxy-1H-indole-3-carboxamide]",56,56,–,–
"Cn1cc(-c2ccc(Cn3cc(CC(=O)N[C@H]4CCCC[C@@H]4O)c4c(F)cccc43)c(F)c2)cn1 [Example 93, 2-(4-fluoro-1-(2-fluoro-4-(1-methyl-1H-pyrazol-4-yl)benzyl)-1H-indol-3-yl)-N-((1S,2S)-2-hydroxycyclohexyl)acetamide]",191,1880,–,–
"CNC(=O)c1ccc(Cn2cc(C(=O)NC3CCC(F)(F)CC3)c3c(F)cccc32)cc1 [Example 117, N-(4,4-difluorocyclohexyl)-4-fluoro-1-[[4-(methylcarbamoyl)phenyl]methyl]indole-3-carboxamide]",14,29,–,–
"CNC(=O)c1ccc(Cn2cc(C(=O)N[C@H]3CCCC[C@@H]3O)c3c(F)cccc32)cc1F [Example 88, 4-fluoro-1-(3-fluoro-4-(methylcarbamoyl)benzyl)-N-((1S,2S)-2-hydroxycyclohexyl)-1H-indole-3-carboxamide]",14.3,15.8,–,–
"Cc1nc(-c2ccc(Cn3cc(C(=O)N[C@H]4CCOC[C@@H]4O)c4c(F)cccc43)cc2)no1 [Example 83, 4-fluoro-N-((3R,4S)-3-hydroxytetrahydro-2H-pyran-4-yl)-1-(4-(5-methyl-1,2,4-oxadiazol-3-yl)benzyl)-1H-indole-3-carboxamide]",184,160,–,–
"N#Cc1ccc(Cn2cc(C(=O)N[C@H]3CCOC[C@@H]3O)c3c(F)cccc32)cc1 (racemic) [Example 16, 1-(4-cyanobenzyl)-4-fluoro-N-((3RS,4SR)-3-hydroxytetrahydro-2H-pyran-4-yl)-1H-indole-3-carboxamide]",–,–,237,337
"Cn1cc(-c2ccc(Cn3cc(CC(=O)N[C@H]4CCOC[C@@H]4O)c4c(F)cccc43)c(F)c2)cn1 [Example 92, 2-[4-Fluoro-1-[[2-fluoro-4-(1-methylpyrazol-4-yl)phenyl]methyl]indol-3-yl]-N-[(3R,4S)-3-hydroxyoxan-4-yl]acetamide]",35,57,–,–
"Cn1cc(-c2ccc(Cn3cc(C(=O)N[C@H]4CCOC[C@@H]4O)c4c(F)cccc43)c(F)c2)cn1 (single isomer, unassigned) [Example 71, 4-Fluoro-1-(2-fluoro-4-(1-methyl-1H-pyrazol-4-yl)benzyl)-N-((3R,4S) or (3S,4R)-3-hydroxytetrahydro-2H-pyran-4-yl)-1H-indole-3-carboxamide]",5.92,12,–,–
"Cn1cc(-c2ccc(Cn3cc(C(=O)N[C@H]4CCCC[C@@H]4O)c4c(F)c(F)c(F)c(F)c43)cc2)cn1 [Example 53, 4,5,6,7-tetrafluoro-N-((1S,2S)-2-hydroxycyclohexyl)-1-(4-(1-methyl-1H-pyrazol-4-yl)benzyl)-1H-indole-3-carboxamide]",44.1,47.5,–,–
"Cc1ccn(-c2ccc(Cn3cc(C(=O)N[C@H]4CCCC[C@@H]4O)c4c(F)cccc43)cc2)n1 [Example 50, 4-fluoro-N-((1S,2S)-2-hydroxycyclohexyl)-1-(4-(3-methyl-1H-pyrazol-1-yl)benzyl)-1H-indole-3-carboxamide]",18.3,13.9,–,–
"Cn1cc(-c2ccc(Cn3nc(C(=O)N[C@H]4CCOC[C@@H]4O)c4c(F)ccc(F)c43)cn2)cn1 [Example 74, 4,7-difluoro-N-((3R,4S)-3-hydroxytetrahydro-2H-pyran-4-yl)-1-((6-(1-methyl-1H-pyrazol-4-yl)yridine-3-yl)methyl)-1H-indazole-3-carboxamide]",54.8,48.9,–,–
O=C(N[C@H]1CCCC[C@@H]1O)c1cn(Cc2ccc(-c3ccccc3)cn2)c2cccc(F)c12 [Example 140],103,518,–,–
"COc1ccc(Cn2cc(C(=O)N[C@H]3CCCC[C@@H]3O)c3c(F)cccc32)cc1F [Example 33, 4-fluoro-1-(3-fluoro-4-methoxybenzyl)-N-((1S,2S)-2-hydroxycyclohexyl)-1H-indole-3-carboxamide]",–,–,104,222
"O=C(N[C@H]1CCOC[C@@H]1O)c1cn(Cc2ccc(N3CCCC3=O)cc2)c2cccc(F)c12 [Example 84, 4-fluoro-N-((3R,4S)-3-hydroxytetrahydro-2H-pyran-4-yl)-1-(4-(2-oxopyrrolidin-1-yl)benzyl)-1H-indole-3-carboxamide]",182,169,–,–
"CNC(=O)c1ccc(Cn2cc(C(=O)NC3CCCCC3)c3c(F)cccc32)cc1 [Example 114, N-cyclohexyl-4-fluoro-1-[[4-(methylcarbamoyl)phenyl]methyl]indole-3-carboxamide]",17,15,–,–
"Cn1cc(-c2ccc(Cn3cc(C(=O)NC4CC(F)(F)C4)c4c(F)cccc43)cc2)cn1 [Example 9, N-(3,3-difluorocyclobutyl)-4-fluoro-1-(4-(1-methyl-1H-pyrazol-4-yl)benzyl)-1H-indole-3-carboxamide]",365,411,–,–
